Data set [1] in a line: HEK 293 kidney cell viability / cytotoxicity assay (Alamar Blue). The format is cell-based. To be noted: human. As to the method:
Evaluating compound effects on kidney cell viability.
HEK 293 cells were maintained in MEM medium (Corning Cellgro, 10-009 CV) supplemented with 10% FBS (Sigma, F2242). […] Cells at 80% confluence were harvested and diluted in growth medium, then 45 μL of the HEK 293 cells (1,500 cells/well) were dispensed per well, and plates were sealed with “Breathe Easy” oxygen permeable membranes (Diversified Biotech) and incubated at 37° C., 5% CO2, for 24 h. […] Plates were sealed with “Breathe Easy” oxygen permeable membranes and incubated for an additional 48 h at 37° C. and 5% CO2. The Alamar Blue reporter reagents were then added to a final concentration of 10%, the plates incubated at 37° C. and 5% CO2, and sample fluorescence (535 nm excitation, 590 nm emission) was read using a Molecular Devices FlexStation II 384-well plate reader (readings taken between 4-24 h of incubation so as to achieve signals in the 30-60% range for conversion of resazurin to resorufin). Cell viability was calculated as per vendor instructions (Thermo Fisher—Alamar Blue cell viability assay manual).
On the technique in general: The colour change of resazurin is a common sign of viable cells or microbes.

The test system of another data set is S. aureus. In words: S. aureus bacterial proliferation assay. It is filed as cell-based. The note with it: for EC50: Staphylococcus aureus, read-out: S. aureus Proliferation EC50. As to the method:
Evaluation of compounds for inhibition of bacterial cell proliferation.
Growth Media: S. aureus bacteria were grown in Brain Heart Infusion (BHI) broth/agar (Becton, Dickinson and Company). All liquid cultures were grown in BHI media supplemented with 25 mg/L Ca^2+ and 12.5 mg/L Mg^2+ to mimic free physiological concentrations of these cations. A 10 mg/mL Ca^2+ stock solution was prepared by dissolving 3.68 g of CaCl2·2H^2O in 100 mL of deionized water, and a 10 mg/mL Mg^2+ stock solution was prepared by dissolving 8.36 g of […] in 100 mL deionized water. Both stock solutions were filter-sterilized using 0.2 μm pore size cellulose-acetate filters. 2.5 mL of the sterile 10 mg/mL Ca^2+ stock and 1.25 mL of the sterile 10 mg/mL Mg^2+ stock solutions were added per 1 L of autoclaved BHI medium to obtain 25 mg/L Ca^2+ and 12.5 mg/L Mg^2+ ions, respectively.
General Assay Protocol: Stock bacterial cultures were streaked onto BHI agar plates and grown overnight at 37° C. Fresh aliquots of broth were inoculated with single bacterial colonies and the cultures were grown overnight at 37° C. with shaking (240 rpm) in cation adjusted BHI media. The following morning, the overnight cultures were sub-cultured (1:5 dilution) into fresh aliquots of cation adjusted BHI media and grown at 37° C. for 1-2 hours with shaking. After 2 h, cultures were diluted into fresh media to achieve final OD600 readings of 0.017. Aliquots of these diluted cultures (30 μL) were added to clear, flat-bottom, 384-well polystyrene plates that were stamped with 0.5 μL of test compounds in 20 μL media. Compounds were evaluated in dose-response format where the inhibitor concentration range during the proliferation assay was 100 μM to 46 nM (3-fold dilution series). Plates were sealed with “Breathe Easy” oxygen permeable membranes (Diversified Biotech) and left to incubate at 37° C. without shaking (stagnant assay). OD600 nm readings were taken generally at 6-8 h, when bacteria had reached log-phase growth. A second set of baseline control plates were prepared analogously, but without any bacteria added, to correct for possible compound absorbance and/or precipitation. Plates were then read at 600 nm using a Molecular Devices SpectraMax Plus384 microplate reader. EC50 values for the test compounds were obtained by plotting the OD600 results in GraphPad Prism and analyzing by non-linear regression using the log(inhibitor) vs. response (variable slope) equation. For results, see Tables 1, 2, and 3.

The mark [2] stands for this setting: Table 1, cation adjusted BHI media, OD600 at 6-8 h.
[3] abbreviates: Table 2, 48 h incubation, Alamar Blue, read-out: HEK 293 Kidney Cell Viability CC50.
Where [4] appears, read: Table 2, cation adjusted BHI media, OD600 at 6-8 h.
Setting [5] is: HEK 293 kidney cells, Table 2, 48 h incubation, Alamar Blue, read-out: HEK 293 Kidney Cell Viability CC50.

The structures appear in SMILES notation. Where two headings read alike, the source gives them in different places.

The CC50 is the concentration at which the toxic effect on the cells reaches its halfway point.

`Cc1cc(C(C#N)c2ccc(Cl)cc2)c(Cl)cc1NC(=O)c1cc(I)cc(I)c1O` (centres unmarked) [Closantel, reference compound] showed a CC50 at 48 h in data set [1] of 79 µM. In the data set with S. aureus (setting [2]), the EC50 stood at 480 nM.

On to `O=C(Nc1ccc(Sc2nc3ccccc3s2)c(Cl)c1)c1cc(Br)cc(Br)c1O` [Compound 1, reference compound], for which, in data set [1] (HEK 293 kidney cells, Table 1, 48 h incubation, Alamar Blue, read-out: HEK 293 Kidney Cell Viability CC50), the half-maximal cytotoxic concentration (CC50) at 48 h was 73 µM. The EC50 in the data set on S. aureus (setting [2]) turned out to be 300 nM.

Turning to `COc1c(Br)cc(Br)cc1C(=O)Nc1cc(Cl)c(C(C#N)c2ccc(Cl)cc2)cc1C` (centres unmarked) [Compound 45, 3,5-dibromo-N-(5-chloro-4-((4-chlorophenyl)(cyano)methyl)-2-methylphenyl)-2-methoxybenzamide], the cytotoxic concentration (CC50) at 48 h in data set [1] (setting [3]) was found to be 66 µM. The molecule also came in with a S. aureus Proliferation EC50 in the data set with S. aureus (setting [4]) above 100 µM.

For `Cc1cc(C(C#N)c2ccc(Cl)cc2)c(Cl)cc1NC(=O)c1cc(Br)cc(Br)c1O` (centres unmarked) [Compound 46, 3,5-dibromo-N-(5-chloro-4-((4-chlorophenyl)(cyano)methyl)-2-methylphenyl)-2-hydroxybenzamide], the CC50 at 48 h in data set [1] (setting [3]) stood at 58 µM. Also, the EC50 in the data set with S. aureus (setting [4]) amounted to 220 nM.

With `COc1c(Br)cccc1C(=O)Nc1cc(Cl)c(C(C#N)c2ccc(Cl)cc2)cc1C` (centres unmarked) [Compound 47, 3-bromo-N-(5-chloro-4-((4-chlorophenyl)(cyano)methyl)-2-methylphenyl)-2-methoxybenzamide], the half-maximal cytotoxic concentration (CC50) at 48 h in data set [1] (setting [3]) is above 100 µM. Besides, in the data set on S. aureus (setting [4]), the S. aureus Proliferation EC50 is above 100 µM.

With `Cc1cc(C(C#N)c2ccc(Cl)cc2)c(Cl)cc1NC(=O)c1cccc(Br)c1O` (centres unmarked) [Compound 48, 3-bromo-N-(5-chloro-4-((4-chlorophenyl)(cyano)methyl)-2-methylphenyl)-2-hydroxybenzamide], the CC50 at 48 h in data set [1] (setting [3]) was 43 µM. The EC50 in the data set on S. aureus (setting [4]) was found to be 580 nM.

As to `COc1ccc(Br)cc1C(=O)Nc1cc(Cl)c(C(C#N)c2ccc(Cl)cc2)cc1C` (centres unmarked) [Compound 49, 5-bromo-N-(5-chloro-4-((4-chlorophenyl)(cyano)methyl)-2-methylphenyl)-2-methoxybenzamide], the half-maximal cytotoxic concentration (CC50) at 48 h in data set [1] (setting [3]) is above 100 µM. The S. aureus Proliferation EC50 with S. aureus (setting [4]) was above 100 µM.

For the molecule `Cc1cc(C(C#N)c2ccc(Cl)cc2)c(Cl)cc1NC(=O)c1cc(Br)ccc1O` (centres unmarked) [Compound 50, 5-bromo-N-(5-chloro-4-((4-chlorophenyl)(cyano)methyl)-2-methylphenyl)-2-hydroxybenzamide], the CC50 at 48 h in data set [1] (setting [3]) turned out to be 3.4 µM. For the same molecule, in the data set on S. aureus (setting [4]), the EC50 was 110 nM.

Consider `COc1c(Cl)cc(Cl)cc1C(=O)Nc1cc(Cl)c(C(C#N)c2ccc(Cl)cc2)cc1C` (centres unmarked) [Compound 51, 3,5-dichloro-N-(5-chloro-4-((4-chlorophenyl)(cyano)methyl)-2-methylphenyl)-2-methoxybenzamide], for which the CC50 at 48 h in data set [1] (setting [3]) was 83 µM. This molecule also returned a S. aureus Proliferation EC50 in the data set on S. aureus (setting [4]) above 100 µM.

For the molecule `Cc1cc(C(C#N)c2ccc(Cl)cc2)c(Cl)cc1NC(=O)c1cc(Cl)cc(Cl)c1O` (centres unmarked) [Compound 52, 3,5-dichloro-N-(5-chloro-4-((4-chlorophenyl)(cyano)methyl)-2-methylphenyl)-2-hydroxybenzamide], the CC50 at 48 h in data set [1] (setting [5]) was 44 µM. Also, the EC50 in the data set with S. aureus (setting [4]) was 270 nM.

For the molecule `COc1c(Cl)cccc1C(=O)Nc1cc(Cl)c(C(C#N)c2ccc(Cl)cc2)cc1C` (centres unmarked) [Compound 53, 3-chloro-N-(5-chloro-4-((4-chlorophenyl)(cyano)methyl)-2-methylphenyl)-2-methoxybenzamide], the half-maximal cytotoxic concentration (CC50) at 48 h in data set [1] (setting [5]) is above 100 µM. Moreover, in the data set on S. aureus (setting [4]), the S. aureus Proliferation EC50 was above 100 µM.

As to `Cc1cc(C(C#N)c2ccc(Cl)cc2)c(Cl)cc1NC(=O)c1cccc(Cl)c1O` (centres unmarked) [Compound 54, 3-chloro-N-(5-chloro-4-((4-chlorophenyl)(cyano)methyl)-2-methylphenyl)-2-hydroxybenzamide], the CC50 at 48 h in data set [1] (setting [3]) turned out to be 88 µM. In addition, the EC50 in the data set with S. aureus (setting [4]) is 560 nM.

Turning to `COc1cc(Cl)ccc1C(=O)Nc1cc(Cl)c(C(C#N)c2ccc(Cl)cc2)cc1C` (centres unmarked) [Compound 55, 4-chloro-N-(5-chloro-4-((4-chlorophenyl)(cyano)methyl)-2-methylphenyl)-2-methoxybenzamide], in data set [1] (setting [3]), the CC50 at 48 h was above 100 µM. Also, the S. aureus Proliferation EC50 in the data set with S. aureus (setting [4]) is above 100 µM.

As to `Cc1cc(C(C#N)c2ccc(Cl)cc2)c(Cl)cc1NC(=O)c1ccc(Cl)cc1O` (centres unmarked) [Compound 56, 4-chloro-N-(5-chloro-4-((4-chlorophenyl)(cyano)methyl)-2-methylphenyl)-2-hydroxybenzamide], the CC50 at 48 h in data set [1] (setting [3]) stood at 16 µM. For the same molecule, the EC50 in the data set with S. aureus (setting [4]) stood at 13 nM.

In the case of `COc1ccc(Cl)cc1C(=O)Nc1cc(Cl)c(C(C#N)c2ccc(Cl)cc2)cc1C` (centres unmarked) [Compound 57, 5-chloro-N-(5-chloro-4-((4-chlorophenyl)(cyano)methyl)-2-methylphenyl)-2-methoxybenzamide], the CC50 at 48 h in data set [1] (setting [3]) was 28 µM. Moreover, in the data set on S. aureus (Table 3, cation adjusted BHI media, OD600 at 6-8 h), the EC50 was above 100000 nM. In the data set with S. aureus (setting [4]), this molecule yielded a S. aureus Proliferation EC50 above 100 µM.

With `Cc1cc(C(C#N)c2ccc(Cl)cc2)c(Cl)cc1NC(=O)c1cc(Cl)ccc1O` (centres unmarked) [Compound 58, 5-chloro-N-(5-chloro-4-((4-chlorophenyl)(cyano)methyl)-2-methylphenyl)-2-hydroxybenzamide], the CC50 at 48 h in data set [1] (setting [3]) amounted to 11 µM. In the data set with S. aureus, the EC50 amounted to 140 nM.

Take `COc1ccc(C)cc1C(=O)Nc1cc(Cl)c(C(C#N)c2ccc(Cl)cc2)cc1C` (centres unmarked) [Compound 59, N-(5-chloro-4-((4-chlorophenyl)(cyano)methyl)-2-methylphenyl)-2-methoxy-5-methylbenzamide]: the CC50 at 48 h in data set [1] (setting [3]) was found to be 32 µM. Besides, the S. aureus Proliferation EC50 in the data set on S. aureus (setting [4]) is above 100 µM.

`Cc1ccc(O)c(C(=O)Nc2cc(Cl)c(C(C#N)c3ccc(Cl)cc3)cc2C)c1` (centres unmarked) [Compound 60, N-(5-chloro-4-((4-chlorophenyl)(cyano)methyl)-2-methylphenyl)-2-hydroxy-5-methylbenzamide]: in data set [1] (setting [3]), the CC50 at 48 h amounted to 40 µM. In the data set with S. aureus (setting [4]), this molecule displayed a S. aureus Proliferation EC50 of 1.3 µM.

Turning to `COc1ccccc1C(=O)Nc1cc(Cl)c(C(C#N)c2ccc(Cl)cc2)cc1C` (centres unmarked) [Compound 61, N-(5-chloro-4-((4-chlorophenyl)(cyano)methyl)-2-methylphenyl)-2-methoxybenzamide], the CC50 at 48 h in data set [1] (setting [5]) is above 100 µM. The molecule further came in with a S. aureus Proliferation EC50 with S. aureus (setting [4]) above 100 µM.

For the molecule `COc1cccc(C(=O)Nc2cc(Cl)c(C(C#N)c3ccc(Cl)cc3)cc2C)c1` (centres unmarked) [Compound 62, N-(5-chloro-4-((4-chlorophenyl)(cyano)methyl)-2-methylphenyl)-3-methoxybenzamide], in data set [1] (setting [5]), the CC50 at 48 h was determined as 50 µM. In the data set with S. aureus (setting [4]), this molecule displayed a S. aureus Proliferation EC50 above 100 µM.

Take `COc1ccc(C(=O)Nc2cc(Cl)c(C(C#N)c3ccc(Cl)cc3)cc2C)cc1` (centres unmarked) [Compound 63, N-(5-chloro-4-((4-chlorophenyl)(cyano)methyl)-2-methylphenyl)-4-methoxybenzamide]: in data set [1] (setting [5]), the cytotoxic concentration (CC50) at 48 h was above 100 µM. In the data set on S. aureus (setting [4]), this molecule registered a S. aureus Proliferation EC50 above 100 µM.

As to `Cc1cc(C(C#N)c2ccc(Cl)cc2)c(Cl)cc1NC(=O)c1ccccc1O` (centres unmarked) [Compound 64, N-(5-chloro-4-((4-chlorophenyl)(cyano)methyl)-2-methylphenyl)-2-hydroxybenzamide], the cytotoxic concentration (CC50) at 48 h in data set [1] (setting [3]) stood at 26 µM. In addition, the EC50 with S. aureus stood at 280 nM.

In the case of `Cc1cc(C(C#N)c2ccc(Cl)cc2)c(Cl)cc1NC(=O)c1cccc(O)c1` (centres unmarked) [Compound 65, N-(5-chloro-4-((4-chlorophenyl)(cyano)methyl)-2-methylphenyl)-3-hydroxybenzamide], the cytotoxic concentration (CC50) at 48 h in data set [1] (setting [5]) is 44 µM. This molecule also displayed a S. aureus Proliferation EC50 with S. aureus (setting [4]) of 1.8 µM.

The values are drawn from patent US20230406831A1, “COMPOUNDS AND METHODS OF INHIBITING BACTERIAL CHAPERONIN SYSTEMS” (THE TRUSTEES OF INDIANA UNIVERSITY, priority 2020, published 2023).
